Columns and labels:
[1] = target: T1, Mineralocorticoid receptor (Homo sapiens, UniProt P08235); assay: Inhibitory activity against human Mineralocorticoid receptor
T1 sequence (P08235 whole entry): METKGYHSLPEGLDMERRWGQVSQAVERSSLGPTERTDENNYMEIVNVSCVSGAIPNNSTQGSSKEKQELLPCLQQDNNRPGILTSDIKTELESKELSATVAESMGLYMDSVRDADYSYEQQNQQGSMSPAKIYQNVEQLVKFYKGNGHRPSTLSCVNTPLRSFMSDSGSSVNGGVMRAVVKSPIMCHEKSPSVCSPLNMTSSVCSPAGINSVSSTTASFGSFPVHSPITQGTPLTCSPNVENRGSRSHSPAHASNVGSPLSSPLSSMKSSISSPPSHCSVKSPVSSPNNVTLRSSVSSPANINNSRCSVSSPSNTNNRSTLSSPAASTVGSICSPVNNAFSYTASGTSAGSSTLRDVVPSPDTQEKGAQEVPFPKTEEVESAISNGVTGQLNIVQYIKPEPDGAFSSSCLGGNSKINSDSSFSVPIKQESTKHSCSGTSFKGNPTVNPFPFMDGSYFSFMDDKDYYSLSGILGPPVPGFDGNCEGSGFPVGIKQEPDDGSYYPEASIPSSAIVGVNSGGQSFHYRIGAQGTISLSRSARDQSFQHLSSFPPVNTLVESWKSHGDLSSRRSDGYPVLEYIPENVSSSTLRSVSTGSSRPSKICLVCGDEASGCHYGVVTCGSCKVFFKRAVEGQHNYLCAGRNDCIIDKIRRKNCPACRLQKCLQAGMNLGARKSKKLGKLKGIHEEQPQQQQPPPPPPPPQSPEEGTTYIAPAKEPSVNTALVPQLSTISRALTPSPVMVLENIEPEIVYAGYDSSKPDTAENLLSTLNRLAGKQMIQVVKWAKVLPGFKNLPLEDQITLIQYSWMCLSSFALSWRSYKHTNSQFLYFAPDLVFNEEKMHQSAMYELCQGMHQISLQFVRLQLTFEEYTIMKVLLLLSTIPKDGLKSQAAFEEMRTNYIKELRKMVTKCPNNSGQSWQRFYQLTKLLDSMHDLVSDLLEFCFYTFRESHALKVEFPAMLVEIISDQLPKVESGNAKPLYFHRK

Progesterone receptor = target: T2, Progesterone receptor (Homo sapiens, UniProt P06401); assay: Agonistic activity against human progesterone receptor in T47D breast cancer cells; format: functional, cell-based
T2 sequence (P06401 whole entry): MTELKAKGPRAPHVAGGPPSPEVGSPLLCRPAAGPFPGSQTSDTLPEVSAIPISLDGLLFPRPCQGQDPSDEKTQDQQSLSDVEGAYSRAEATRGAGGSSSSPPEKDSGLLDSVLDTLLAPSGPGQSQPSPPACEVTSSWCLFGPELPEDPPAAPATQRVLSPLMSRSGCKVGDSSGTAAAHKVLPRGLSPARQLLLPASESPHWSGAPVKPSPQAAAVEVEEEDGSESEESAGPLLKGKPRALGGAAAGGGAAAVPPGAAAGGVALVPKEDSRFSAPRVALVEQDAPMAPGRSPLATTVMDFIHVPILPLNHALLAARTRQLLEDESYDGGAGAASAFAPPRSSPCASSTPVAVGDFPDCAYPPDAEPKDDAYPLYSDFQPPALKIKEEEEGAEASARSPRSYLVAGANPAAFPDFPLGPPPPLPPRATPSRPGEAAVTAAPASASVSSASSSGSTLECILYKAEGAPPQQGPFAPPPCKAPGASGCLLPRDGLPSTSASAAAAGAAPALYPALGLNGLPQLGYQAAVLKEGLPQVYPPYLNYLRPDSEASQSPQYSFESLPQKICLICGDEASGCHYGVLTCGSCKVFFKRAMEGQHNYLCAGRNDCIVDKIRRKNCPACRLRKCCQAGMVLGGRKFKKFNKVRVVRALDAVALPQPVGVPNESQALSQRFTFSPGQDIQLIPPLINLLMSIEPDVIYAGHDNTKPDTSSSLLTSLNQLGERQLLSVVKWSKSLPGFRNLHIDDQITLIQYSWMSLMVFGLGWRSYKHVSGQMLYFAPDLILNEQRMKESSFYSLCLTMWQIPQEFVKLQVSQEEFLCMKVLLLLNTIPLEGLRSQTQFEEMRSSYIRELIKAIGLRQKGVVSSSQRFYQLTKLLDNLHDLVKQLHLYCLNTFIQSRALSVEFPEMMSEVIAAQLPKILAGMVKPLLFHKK

Glucocorticoid receptor = target: T3, Glucocorticoid receptor (Homo sapiens, UniProt P04150); assay: Inhibition of Dexamethasone binding to human glucocorticoid receptor expressed in baculovirus […] cells
T3 sequence (P04150 whole entry): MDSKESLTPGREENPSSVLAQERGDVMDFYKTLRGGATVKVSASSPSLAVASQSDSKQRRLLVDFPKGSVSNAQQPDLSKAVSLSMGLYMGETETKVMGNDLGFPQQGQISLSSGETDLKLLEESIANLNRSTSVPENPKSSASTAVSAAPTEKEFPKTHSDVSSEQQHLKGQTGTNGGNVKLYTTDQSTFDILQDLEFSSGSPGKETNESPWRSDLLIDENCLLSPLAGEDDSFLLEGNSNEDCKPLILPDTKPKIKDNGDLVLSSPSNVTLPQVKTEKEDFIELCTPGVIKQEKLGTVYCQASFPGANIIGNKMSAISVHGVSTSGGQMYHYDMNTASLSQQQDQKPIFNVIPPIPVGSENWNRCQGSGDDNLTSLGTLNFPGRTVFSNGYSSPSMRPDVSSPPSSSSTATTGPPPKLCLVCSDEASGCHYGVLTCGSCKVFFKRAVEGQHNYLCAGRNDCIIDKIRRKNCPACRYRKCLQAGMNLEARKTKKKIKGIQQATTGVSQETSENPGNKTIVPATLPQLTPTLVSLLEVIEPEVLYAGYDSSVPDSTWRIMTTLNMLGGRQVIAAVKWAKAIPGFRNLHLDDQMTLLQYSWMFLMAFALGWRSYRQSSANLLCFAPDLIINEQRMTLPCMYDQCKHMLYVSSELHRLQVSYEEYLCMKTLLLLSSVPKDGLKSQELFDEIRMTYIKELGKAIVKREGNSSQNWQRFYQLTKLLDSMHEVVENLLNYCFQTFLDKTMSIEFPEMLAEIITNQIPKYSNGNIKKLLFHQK

[2] = target: T4, Progesterone receptor (Homo sapiens) (UniProt P06401); assay: Percent agonistic effect towards human progesterone receptor in T47D breast cancer cells; format: functional, cell-based
T4 sequence (whole entry): T2 sequence (P06401 whole entry)

SMILES | EC50 (Progesterone receptor) | Ki (Glucocorticoid receptor) | Efficacy [2] | IC50 [1]
CC1=CC(C)(C)Nc2ccc3c(c21)/C(=C/c1ccncc1C)Oc1ccc(F)cc1-3 | 4.6 nM | 232 nM | 46% | 363 nM
CC1=CC(C)(C)Nc2ccc3c(c21)/C(=C/c1ccsc1)Oc1ccc(F)cc1-3 | 5.5 nM | 84 nM | 48% | 1900 nM

Second part, led by results:

EC50 (Progesterone receptor) | Ki (Glucocorticoid receptor) | Efficacy [2] | SMILES | IC50 [1]
9 nM | 232 nM | 43% | CC1=CC(C)(C)Nc2ccc3c(c21)/C(=C/c1ccccc1C)Oc1c(F)cccc1-3 | 1850 nM
18 nM | 270 nM | 51% | CCc1ccccc1/C=C1\Oc2ccc(F)cc2-c2ccc3c(c21)C(C)=CC(C)(C)N3 | 334 nM
11 nM | 321 nM | 45% | CC1=CC(C)(C)Nc2ccc3c(c21)/C(=C/c1ccccc1)Oc1c(F)cccc1-3 | 
